Each structure is given as a SMILES string. Active and inactive are the calls of the source. The calls are words filed in the database; no cut-off is given here. A value given as a limit tells only on which side of the number the result lay.

Common to all, as to type: cell-based
The test system of one data set is HeLa. The data set can be described thus: Cytotoxicity against human HeLa cells at 0.3 to 100 uM.
The target of data set [1] is T1, HIF1A/p300/CREB-binding protein (Homo sapiens, UniProt Q09472+Q16665+Q92793). The data set is described as follows: Inhibition of HIF-1alpha/p300/CBP (unknown origin) transcriptional activity expressed in human HeLa cells expressing HRE-Luc/CMV-Luc after 12 hrs under hypoxic condition by dual luciferase reporter gene assay. (In general: In a reporter assay the amount or activity of a reporter protein is the signal.)

Data set [2] has as its target T1, HIF1A/p300/CREB-binding protein. The data set is described as follows: Inhibition of HIF-1alpha/p300/CBP PPI in human HeLa cells assessed as HIF-1alpha mRNA levels by measuring HIF-1alpha to beta2-microglobulin ratio at 30 uM after 12 hrs under hypoxic condition by qPCR analysis (reference value: 0.90 +/- 0.23). A general note: In qPCR the cycle at which signal appears reflects the starting amount.

The target is the same in data set [3]. The data set can be described thus: Inhibition of HIF-1alpha/p300/CBP PPI in human HeLa cells assessed as reduction in HIF-1alpha proteasomal degradation after 12 hrs under hypoxic condition in presence of proteasome inhibitor MG132 by Western blot analysis. (A western blot detects proteins with antibodies after separation by electrophoresis.)
Data set [4] has the same target. The data set can be described thus: Inhibition of HIF-1alpha/p300/CBP PPI in human HeLa cells assessed as […] of HIF-1alpha accumulation at 3 to 30 uM after 12 hrs under hypoxic condition by Western blot analysis.

The IC50 is the concentration that inhibits the measured activity by half. As for `CC(C)CCOC(=O)C1=C(OC(=O)CC(C)C)CC2(OC(=O)CC(C)C)CCCC1C2` (configuration not stated), the Activity result in the data set on HeLa was “Non-Toxic”. Also, in data set [1], the IC50 was 6.3 µM.

For `O=C(OCc1ccccc1)C1=C(O)CC2(O)CCCC1C2` (configuration not stated), in the data set on HeLa, the Activity entry is “Non-Toxic”. The same molecule yielded an IC50 in data set [1] of more than 100 µM.

With `CC(C)CCOC(=O)C1=C(O)CC2(O)CCCC1C2` (configuration not stated), the Activity result in the data set with HeLa is “Non-Toxic”. In data set [1], the IC50 is more than 100 µM.

Turning to `CC(C)CC(=O)OC1=C(C(=O)OCc2ccccc2)C2CCCC(OC(=O)CC(C)C)(C1)C2` (configuration not stated), the Ratio in data set [2] is 1.2. In data set [3], the inhibition entry was “Dose-dependent effect”. Besides, the Activity result with HeLa is “Non-Toxic”. The inhibition entry in data set [4] is “inactive”. The same molecule yielded an IC50 in data set [1] of 3 µM.

Consider `OCc1ccc(-c2nn(Cc3ccccc3)c3ccccc23)o1`, for which the Activity entry in the data set with HeLa is listed as “Non-Toxic”.

The values above are taken from ChEMBL document CHEMBL4118167, “Discovery of bicyclo[3,3,1]non-2-ene as a novel skeleton for HIF-1 inhibitors” (Bioorg Med Chem, 2018).
